Results as given in the supplement of paper PMC9013687.
± gives the standard deviation of the averaged measurements.

Columns and labels:
[1] = tested on: Danio rerio embryo; assay: EC10 Bladder size_Decrease; higher = less potent; details: exposure time: 4 dpf
Procedure: (§1)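 Zebrafish embryos (UFZ-OBI strain) were exposed from 2 hpf for 48 h (2 dpf) or 96 h (4 dpf) at 28 °C; spontaneous tail coiling was scored at 25 hpf. Morphological features from automated image analysis (FishInspector), heart rate and locomotor response were fitted with drc models. Quantal endpoints were dichotomised at 2.5 SD from controls and fitted with a log-logistic model; heart rate, pigmentation and STC were normalised to the replicate control mean. Betamethasone was tested as betamethasone dipropionate, diflorasone as diflorasone diacetate.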

[2] = tested on: Danio rerio embryo; assay: EC50 Bladder size_Decrease; details: exposure time: 4 dpf
Procedure: as §1

[3] = tested on: Danio rerio embryo; assay: EC20 Lack of SB; higher = less potent; details: exposure time: 4 dpf
Procedure: as §1

[4] = tested on: Danio rerio embryo; assay: EC10 Eye-jaw distance_Decrease; higher = less potent; details: exposure time: 4 dpf
Procedure: as §1

[5] = tested on: Danio rerio embryo; assay: EC50 Eye-jaw distance_Decrease; details: exposure time: 4 dpf
Procedure: as §1

[6] = tested on: Danio rerio embryo
Procedure: as §1

[7] = tested on: Danio rerio embryo; assay: EC20 Body length_Decrease; higher = less potent
Procedure: as §1

[8] = tested on: Danio rerio embryo; assay: EC20 LMR dark; higher = less potent; details: exposure time: 4 dpf
Procedure: as §1

[9] = tested on: Danio rerio embryo; assay: EC20 Pericard size_Increase; higher = less potent; details: exposure time: 4 dpf
Procedure: as §1

[10] = tested on: Danio rerio embryo; assay: EC20 Curvature_Increase; higher = less potent
Procedure: as §1

[11] = tested on: Danio rerio embryo; assay: EC20 Bladder size_Decrease; higher = less potent; details: exposure time: 4 dpf
Procedure: as §1

[12] = tested on: Danio rerio embryo; assay: EC50 Yolk sac size_Increase; details: exposure time: 4 dpf
Procedure: as §1

[13] = tested on: Danio rerio embryo; assay: EC10 Any effect; higher = less potent
Procedure: as §1

[14] = tested on: Danio rerio embryo; assay: EC20 Eye-jaw distance_Decrease; higher = less potent; details: exposure time: 4 dpf
Procedure: as §1

[15] = tested on: Danio rerio embryo; assay: EC20 Otolith-eye distance_Decrease; higher = less potent; details: exposure time: 4 dpf
Procedure: as §1

[16] = tested on: Danio rerio embryo; assay: EC10 Curvature_Increase; higher = less potent
Procedure: as §1

[17] = tested on: Danio rerio embryo; assay: spontaneous tail coiling frequency (coils/min/embryo); higher = more spontaneous movement; details: 25 hpf
Procedure: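 Spontaneous tail coilings of zebrafish embryos exposed from 2 hpf were recorded at 24-25 hpf in 1-min videos and detected by a KNIME workflow from grey-value variance. Betamethasone was tested as the dipropionate, diflorasone as the diacetate.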

[18] = tested on: Danio rerio embryo; assay: EC10 Body length_Decrease; higher = less potent
Procedure: as §1

[19] = tested on: Danio rerio embryo; assay: EC50 Pericard size_Increase; details: exposure time: 4 dpf
Procedure: as §1

[20] = tested on: Danio rerio embryo; assay: EC10 Otolith-eye distance_Decrease; higher = less potent; details: exposure time: 4 dpf
Procedure: as §1

[21] = tested on: Danio rerio embryo; assay: EC20 Yolk sac size_Increase; higher = less potent; details: exposure time: 4 dpf
Procedure: as §1

[22] = tested on: Danio rerio embryo; assay: EC50 Curvature_Increase
Procedure: as §1

[23] = tested on: Danio rerio embryo; assay: EC10 LMR dark; higher = less potent; details: exposure time: 4 dpf
Procedure: as §1

[24] = tested on: Danio rerio embryo; assay: EC20 Head trunk angle_Decrease; higher = less potent; details: exposure time: 2 dpf
Procedure: as §1

[25] = tested on: Danio rerio embryo; assay: EC10 Pericard size_Increase; higher = less potent; details: exposure time: 4 dpf
Procedure: as §1

[26] = tested on: Danio rerio embryo; assay: EC10 Yolk sac size_Increase; higher = less potent; details: exposure time: 4 dpf
Procedure: as §1

[27] = tested on: Danio rerio embryo; details: exposure time: 4 dpf
Procedure: as §1

[28] = tested on: Danio rerio embryo; assay: EC50 Body length_Decrease
Procedure: as §1

[29] = tested on: Danio rerio embryo; assay: EC50 Otolith-eye distance_Decrease; details: exposure time: 4 dpf
Procedure: as §1

[30] = tested on: Danio rerio embryo; assay: EC20 Any effect; higher = less potent
Procedure: as §1

CCO/N=C(\CC)C1=C(O)CC(c2c(C)cc(C)cc2C)CC1=O (configuration not stated) [Tralkoxydim]
EC10 Bladder size Decrease [1]: 47.1 µM
EC50 Bladder size Decrease [2]: 61.3 µM
EC20 Lack of SB [3]: 51.2 µM
EC10 Eye-jaw distance Decrease [4]: 84.3 µM
EC50 Eye-jaw distance Decrease [5]: 97.9 µM
EC50 Any effect ([6]; exposure time: 2 dpf): 66 µM
EC50 Otolith ([6]; exposure time: 2 dpf): 241 µM
EC50 Any effect ([6]; exposure time: 4 dpf): 68.9 µM
EC50 STC decrease ([6]; exposure time: 25 h): 171 µM
EC20 Body length Decrease ([7]; exposure time: 2 dpf): 45.5 µM
EC20 Body length Decrease ([7]; exposure time: 4 dpf): 91.9 µM
EC20 LMR dark [8]: 1.56 µM
EC20 Pericard size Increase [9]: 104 µM
EC20 Curvature Increase ([10]; exposure time: 2 dpf): 84.7 µM
EC20 Curvature Increase ([10]; exposure time: 4 dpf): 90.7 µM
EC20 Bladder size Decrease [11]: 51.9 µM
EC50 Yolk sac size Increase [12]: 65.3 µM
EC10 Any effect ([13]; exposure time: 2 dpf): 38.8 µM
EC10 Any effect ([13]; exposure time: 4 dpf): 45.1 µM
EC20 Eye-jaw distance Decrease [14]: 89 µM
EC20 Otolith-eye distance Decrease [15]: 89.6 µM
EC10 Curvature Increase ([16]; exposure time: 2 dpf): 77.4 µM
EC10 Curvature Increase ([16]; exposure time: 4 dpf): 85.2 µM
spontaneous tail coiling frequency ([17]; 30.4 µM): 2.43 ± 0.84
spontaneous tail coiling frequency ([17]; 60.7 µM): 2.33
spontaneous tail coiling frequency ([17]; 91.1 µM): 4.43 ± 1.7
spontaneous tail coiling frequency ([17]; 121.4 µM): 3.17 ± 1.6
spontaneous tail coiling frequency ([17]; 151.8 µM): 1.92 ± 2.8
spontaneous tail coiling frequency ([17]; 197.3 µM): 0.957 ± 1.6
spontaneous tail coiling frequency ([17]; 258 µM): 0
EC10 Body length Decrease ([18]; exposure time: 2 dpf): 36.6 µM
EC10 Body length Decrease ([18]; exposure time: 4 dpf): 85.8 µM
EC50 Pericard size Increase [19]: 106 µM
EC10 Otolith-eye distance Decrease [20]: 77.1 µM
EC20 Yolk sac size Increase [21]: 45.9 µM
EC50 Curvature Increase ([22]; exposure time: 2 dpf): 98.7 µM
EC50 Curvature Increase ([22]; exposure time: 4 dpf): 101 µM
EC10 LMR dark [23]: 0.149 µM
EC20 Head trunk angle Decrease [24]: 88 µM
EC10 Pericard size Increase [25]: 103 µM
EC10 Yolk sac size Increase [26]: 37.4 µM
EC50 LMR dark [27]: 85.8 µM
EC50 Body length Decrease ([28]; exposure time: 2 dpf): 66.2 µM
EC50 Body length Decrease ([28]; exposure time: 4 dpf): 103 µM
EC50 Otolith-eye distance Decrease [29]: 116 µM
EC20 Any effect ([30]; exposure time: 2 dpf): 47.2 µM
EC20 Any effect ([30]; exposure time: 4 dpf): 52.7 µM
